Test results published in article PMC9298260, “An Immunomodulatory Peptide Dendrimer Inspired from Glatiramer Acetate” (Angewandte Chemie (International Ed. in English), 2021).

Assays:
[1] = system: IL-1Ra release from human primary monocytes; experiment: IL-1Ra release from human primary monocytes, immunoassay (ELISA) of supernatants; format: cell-based; conditions: primary human monocytes of healthy donors, 25 and 50 μg mL^−1, 48 h
Protocol: (§1) As an activity screen we focused on interleukin‐1 receptor antagonist (IL‐1Ra), a cytokine released by circulating antigen presenting cells (APC) in response to GA.[15, 35] […] To test our dendrimers, we quantified by immunoassay the release of IL‐1Ra from human primary monocytes of healthy donors, an easily accessible type of APC, stimulated or not by addition of lipopolysaccharide (LPS), which in our hands provided a reliable read‐out.[15] We tested at defined weight/volume (25 and 50 μg mL^−1 compound as typically reported for GA)[15, 35] to account for a possible activity increase with MW as often observed with dendrimers when using molarity. In the initial screen the levels of secreted IL‐1Ra remained below 1 ng mL^−1 for all the smaller test compounds as well as with the linear peptide analogs of GA.
(§2) Figure 2 Cytokine level of IL‐1Ra in supernatants of primary human monocytes of healthy donors treated with peptide dendrimers, evaluated by ELISA (bars, left vertical axis) and mRNA levels (▴, right vertical axis). […] For mRNA levels evaluation, 2×10^6 cells 3 mL^−1 in 6 well plates were incubated with 50 μg mL^−1 dendrimer or GA for 18 h. […]
(§3) Enzyme-linked immunosorbent assay (ELISA)
(§4) Monocytes (5×10^4 cells/200 μL well; 96-well plates) were preincubated for 1 h with or without compounds in RPMI-1640 medium supplemented with 10% heat-inactivated FBS, 50 μg/mL streptomycin, 50 U/mL penicillin, 2 mM L-glutamine, and 5 μg/mL polymyxin B sulfate and then cultured for 48 h in the presence or absence of LPS (100 ng/mL) (2). The production of IL-1Ra was measured in culture supernatants by commercially available enzyme immunoassay according to manufacture protocol.
(§5) Figure S2. Cytokine level of IL-1Ra in supernatants of monocytes for active dendrimers and analogues evaluated by ELISA assay on primary human monocytes of healthy donors. 5×10^4 cells/200 µL in 96 well plates, were incubated with dendrimers or GA as a control for 48 h in presence or absence of LPS (100 ng/mL), in a range of concentrations (50-25 µg/mL) (mean ± SD, n = 2 different experiments). The results are present as the difference between each sample and the non-treated sample to take into account the difference between base line for each donor.
(§6) Figure S3. Cytokine level of IL-1Ra in supernatants of monocytes for active dendrimers and […]
(§7) presence or absence of LPS (100 ng/mL), in a range of concentrations (100-12.5 µg/mL) (mean ± SD, n = 3 different experiments). […]

[2] = system: lymphocytes; experiment: IL-1Ra in supernatants of lymphocytes (rest of leukocytes after Percoll), ELISA; format: cell-based, human; conditions: rest of leukocytes after Percoll gradient, 50-25 µg/mL, 48 h, n = 2
Protocol: Similar donor dependent responses of cytokine release to GA have been reported for IL‐27.[38]
Figure S3. Cytokine level of IL-1Ra in supernatants of monocytes for active dendrimers and analogues evaluated by ELISA assay on primary human monocytes of healthy donors. 5×10^4 cells/200 µL in 96 well plates, were incubated with dendrimers or GA as a control for 48 h in presence or absence of LPS (100 ng/mL), in a range of concentrations (100-12.5 µg/mL) (mean ± SD, n = 3 different experiments).
Figure S4. Cytokine level of IL-1Ra in supernatants of monocytes enriched fraction (a) and the rest of leukocytes (b) for active dendrimers and analogues evaluated by ELISA assay.
Monocytes fraction was separated from whole PBMC by Percoll density gradient centrifugation. 5×10^4 cells/200 µL in 96 well plates were incubated with dendrimers or GA (50-25 µg/mL) as a control for 48 h (mean ± SD, n = 2 different experiments). […]

[3] = system: IL-1Ra release from human primary monocytes; experiment: IL-1Ra release from human primary monocytes, immunoassay (ELISA) of supernatants; format: cell-based; set-up: key: +: Ability to induce IL-1Ra on primary monocytes after 48 h of incubation; Ability to induce IL-1Ra on primary monocytes after 48 h of incubation; conditions: Table S1 initial library; primary monocytes, 48 h
Protocol: as §1, §2, §3, §4, §5, §6, §7

In the case of “(KA)8(KAK)4(KEKA)2KAKEAYCA-NH2 [compound 1, G3 peptide dendrimer]”, the “IL-1Ra release activity (in words)” value [1] is reported as “comparable or higher than GA”, the “induction of IL-1Ra in lymphocytes” value [2] is reported as “did not occur” and the “Act. (ability to induce IL-1Ra)” value [3] is reported as “+”.
